Assay results taken from patent US20260176320A1, “MODULATORS OF G-PROTEIN COUPLED RECEPTORS” (priority 2018, published 2026).
Like-named read-outs stand apart in the source and are kept apart here.

How the values were obtained:
GLP-1R = GLP-1R (Homo sapiens, UniProt P43220); assay: HitHunter cAMP assay (GLP-1R); type: cell-based; settings: for Emax: read-out: (Emax) GLP-1R
Method in brief: (§1)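 Agonist stimulation lasts 30 min at room temperature on 10,000 cells per well, with phosphodiesterase blocked by 625 μM IBMX. Accumulated cAMP is quantified by competitive antibody luminescence after overnight development.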

GIP-R = molecular target: T1, GIP-R (Homo sapiens, UniProt P48546); assay: HitHunter cAMP assay (GIP-R); type: cell-based; settings: for Emax: read-out: (Emax) GIP-R; for Emax at 1 µM: read-out: (Emax) GIP-R at 1 μM, Table 3
T1 sequence (P48546 22-466): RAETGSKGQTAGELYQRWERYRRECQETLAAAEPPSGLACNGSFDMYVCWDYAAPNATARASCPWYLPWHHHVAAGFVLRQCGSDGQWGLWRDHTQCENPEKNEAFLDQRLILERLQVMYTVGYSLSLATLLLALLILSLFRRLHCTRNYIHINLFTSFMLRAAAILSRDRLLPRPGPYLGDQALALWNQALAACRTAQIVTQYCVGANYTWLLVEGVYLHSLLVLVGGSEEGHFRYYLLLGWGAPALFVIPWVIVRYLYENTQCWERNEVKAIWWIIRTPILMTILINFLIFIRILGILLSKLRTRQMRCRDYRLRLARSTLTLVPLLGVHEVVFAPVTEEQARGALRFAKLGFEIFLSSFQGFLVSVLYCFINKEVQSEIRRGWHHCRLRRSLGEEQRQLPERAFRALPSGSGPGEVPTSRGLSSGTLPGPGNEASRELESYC
Method in brief: as §1

[1] = Table 3, cAMP, read-out: EC50 GLP-1R/nM
[2] = Table 3A, cAMP, read-out: EC50 GLP-1R/nM
[3] = Table 3, cAMP, read-out: EC50 GIP-R/nM
[4] = Table 3A, cAMP, read-out: EC50 GIP-R/nM

Sequence of GLP-1R (P43220 24-463): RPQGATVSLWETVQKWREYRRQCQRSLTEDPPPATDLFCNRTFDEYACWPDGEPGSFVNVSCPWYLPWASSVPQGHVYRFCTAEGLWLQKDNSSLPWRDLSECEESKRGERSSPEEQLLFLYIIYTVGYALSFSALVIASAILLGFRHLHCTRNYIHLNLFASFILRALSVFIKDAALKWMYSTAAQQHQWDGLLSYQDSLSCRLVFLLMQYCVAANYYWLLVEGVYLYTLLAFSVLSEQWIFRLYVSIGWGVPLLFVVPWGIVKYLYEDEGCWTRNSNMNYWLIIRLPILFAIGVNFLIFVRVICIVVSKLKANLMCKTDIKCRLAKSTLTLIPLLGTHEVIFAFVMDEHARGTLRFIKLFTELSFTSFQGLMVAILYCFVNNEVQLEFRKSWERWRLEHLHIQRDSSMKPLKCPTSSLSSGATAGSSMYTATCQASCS

SMILES	Emax (GLP-1R; Table 3, cAMP) [%]	EC50 (GLP-1R; [1]) [nM]	Emax (GLP-1R; Table 3A, cAMP) [%]	EC50 (GLP-1R; [2]) [nM]	Emax (GIP-R; Table 3, cAMP) [%]	EC50 (GIP-R; [3]) [nM]	Emax (GIP-R; Table 3A, cAMP) [%]	EC50 (GIP-R; [4]) [nM]	Emax (GLP-1R) [%]	Emax (GIP-R) [%]	Emax at 1 µM (GIP-R; cAMP) [%]	EC50 (GLP-1R; EC50 GLP-1R/nM, Table 3, cAMP) [nM]	EC50 (GLP-1R; EC50 GLP-1R/nM, Table 3A, cAMP) [nM]	EC50 (GIP-R; EC50 GIP-R/nM, Table 3, cAMP) [nM]	EC50 (GIP-R; read-out: EC50 GIP-R/nM, Table 3A, cAMP) [nM]
CC[C@H](C)[C@H](NC(=O)[C@H](CO)NC(=O)[C@H](Cc1ccc(O)cc1)NC(=O)[C@H](CC(=O)O)NC(=O)[C@H](CO)NC(=O)[C@@H](NC(=O)[C@H](Cc1ccccc1)NC(=O)[C@@H](NC(=O)CNC(=O)[C@H](CCC(=O)O)NC(=O)CSCC(=O)NCCN1C(=O)CCC1=O)[C@@H](C)O)[C@@H](C)O)C(=O)N[C@@H](Cc1ccc(O)cc1)C(=O)N[C@@H](CC(C)C)C(=O)N[C@@H](CC(=O)O)C(=O)N[C@@H](CCCCN)C(=O)N[C@@H](CCC(N)=O)C(=O)N[C@@H](C)C(=O)N[C@@H](C)C(=O)NC(C)(C)C(=O)N[C@@H](CCC(=O)O)C(=O)N[C@@H](Cc1ccccc1)C(=O)N[C@H](C(=O)N[C@@H](CC(N)=O)C(=O)N[C@@H](Cc1c[nH]c2ccccc12)C(=O)N[C@@H](CC(C)C)C(=O)N[C@@H](CC(C)C)C(=O)N[C@@H](C)C(=O)NCC(=O)NCC(=O)N1CCC[C@H]1C(=O)N[C@@H](CO)C(=O)N[C@@H](CO)C(=O)NCC(=O)N[C@@H](C)C(=O)N1CCC[C@H]1C(=O)N1CCC[C@H]1C(=O)N1CCC[C@H]1C(=O)N[C@@H](CO)C(=O)N[C@@H](CCCCN)C(N)=O)C(C)C [Compound 117]	92	10 to 100	92	1 to 10	70	10 to 100	70	10 to 100							
CC[C@H](C)[C@H](NC(=O)[C@H](CO)NC(=O)[C@H](Cc1ccc(O)cc1)NC(=O)[C@H](CC(=O)O)NC(=O)[C@H](CO)NC(=O)[C@@H](NC(=O)[C@H](Cc1ccccc1)NC(=O)[C@@H](NC(=O)CNC(=O)[C@H](CCC(=O)O)NC(=O)CSCC(=O)NCCn1ccc(C(F)(F)F)cc1=O)[C@@H](C)O)[C@@H](C)O)C(=O)N[C@@H](Cc1ccc(O)cc1)C(=O)N[C@@H](CC(C)C)C(=O)N[C@@H](CC(=O)O)C(=O)N[C@@H](CCCCN)C(=O)N[C@@H](CCC(N)=O)C(=O)N[C@@H](C)C(=O)N[C@@H](C)C(=O)NC(C)(C)C(=O)N[C@@H](CCC(=O)O)C(=O)N[C@@H](Cc1ccccc1)C(=O)N[C@H](C(=O)N[C@@H](CC(N)=O)C(=O)N[C@@H](Cc1c[nH]c2ccccc12)C(=O)N[C@@H](CC(C)C)C(=O)N[C@@H](CC(C)C)C(=O)N[C@@H](C)C(=O)NCC(=O)NCC(=O)N1CCC[C@H]1C(=O)N[C@@H](CO)C(=O)N[C@@H](CO)C(=O)NCC(=O)N[C@@H](C)C(=O)N1CCC[C@H]1C(=O)N1CCC[C@H]1C(=O)N1CCC[C@H]1C(=O)N[C@@H](CO)C(=O)N[C@@H](CCCCN)C(N)=O)C(C)C [Compound 121]									90	27					
CC[C@H](C)[C@H](NC(=O)[C@H](CO)NC(=O)[C@H](Cc1ccc(O)cc1)NC(=O)[C@H](CC(=O)O)NC(=O)[C@H](CO)NC(=O)[C@@H](NC(=O)[C@H](Cc1ccccc1)NC(=O)[C@@H](NC(=O)CNC(=O)[C@H](CCC(=O)O)NC(=O)CC(C)(C)CC(=O)NCCN1C(=O)CSC1=O)[C@@H](C)O)[C@@H](C)O)C(=O)N[C@@H](Cc1ccc(O)cc1)C(=O)N[C@@H](CC(C)C)C(=O)N[C@@H](CC(=O)O)C(=O)N[C@@H](CCCCN)C(=O)N[C@@H](CCC(N)=O)C(=O)N[C@@H](C)C(=O)N[C@@H](C)C(=O)NC(C)(C)C(=O)N[C@@H](CCC(=O)O)C(=O)N[C@@H](Cc1ccccc1)C(=O)N[C@H](C(=O)N[C@@H](CC(N)=O)C(=O)N[C@@H](Cc1c[nH]c2ccccc12)C(=O)N[C@@H](CC(C)C)C(=O)N[C@@H](CC(C)C)C(=O)N[C@@H](C)C(=O)NCC(=O)NCC(=O)N1CCC[C@H]1C(=O)N[C@@H](CO)C(=O)N[C@@H](CO)C(=O)NCC(=O)N[C@@H](C)C(=O)N1CCC[C@H]1C(=O)N1CCC[C@H]1C(=O)N1CCC[C@H]1C(=O)N[C@@H](CO)C(=O)N[C@@H](CCCCN)C(N)=O)C(C)C [Compound 122]	91	1 to 10	91	1 to 10		> 1000		> 1000			< 1				
CC[C@H](C)[C@H](NC(=O)[C@H](CO)NC(=O)[C@H](Cc1ccc(O)cc1)NC(=O)[C@H](CC(=O)O)NC(=O)[C@H](CO)NC(=O)[C@@H](NC(=O)[C@H](Cc1ccccc1)NC(=O)[C@@H](NC(=O)CNC(=O)[C@H](CCC(=O)O)NC(=O)C1(C(=O)NCCN2C(=O)CSC2=O)Cc2ccccc2C1)[C@@H](C)O)[C@@H](C)O)C(=O)N[C@@H](Cc1ccc(O)cc1)C(=O)N[C@@H](CC(C)C)C(=O)N[C@@H](CC(=O)O)C(=O)N[C@@H](CCCCN)C(=O)N[C@@H](CCC(N)=O)C(=O)N[C@@H](C)C(=O)N[C@@H](C)C(=O)NC(C)(C)C(=O)N[C@@H](CCC(=O)O)C(=O)N[C@@H](Cc1ccccc1)C(=O)N[C@H](C(=O)N[C@@H](CC(N)=O)C(=O)N[C@@H](Cc1c[nH]c2ccccc12)C(=O)N[C@@H](CC(C)C)C(=O)N[C@@H](CC(C)C)C(=O)N[C@@H](C)C(=O)NCC(=O)NCC(=O)N1CCC[C@H]1C(=O)N[C@@H](CO)C(=O)N[C@@H](CO)C(=O)NCC(=O)N[C@@H](C)C(=O)N1CCC[C@H]1C(=O)N1CCC[C@H]1C(=O)N1CCC[C@H]1C(=O)N[C@@H](CO)C(=O)N[C@@H](CCCCN)C(N)=O)C(C)C [Compound 124]	73		73								10	10 to 100	10 to 100	> 1000	> 1000
CC[C@H](C)[C@H](NC(=O)[C@H](CO)NC(=O)[C@H](Cc1ccc(O)cc1)NC(=O)[C@H](CC(=O)O)NC(=O)[C@H](CO)NC(=O)[C@@H](NC(=O)[C@H](Cc1ccccc1)NC(=O)[C@@H](NC(=O)CNC(=O)[C@H](CCC(=O)O)NC(=O)CC(=O)NCCCN1C(=O)c2ccccc2C1=O)[C@@H](C)O)[C@@H](C)O)C(=O)N[C@@H](Cc1ccc(O)cc1)C(=O)N[C@@H](CC(C)C)C(=O)N[C@@H](CC(=O)O)C(=O)N[C@@H](CCCCN)C(=O)N[C@@H](CCC(N)=O)C(=O)N[C@@H](C)C(=O)N[C@@H](C)C(=O)NC(C)(C)C(=O)N[C@@H](CCC(=O)O)C(=O)N[C@@H](Cc1ccccc1)C(=O)N[C@H](C(=O)N[C@@H](CC(N)=O)C(=O)N[C@@H](Cc1c[nH]c2ccccc12)C(=O)N[C@@H](CC(C)C)C(=O)N[C@@H](CC(C)C)C(=O)N[C@@H](C)C(=O)NCC(=O)NCC(=O)N1CCC[C@H]1C(=O)N[C@@H](CO)C(=O)N[C@@H](CO)C(=O)NCC(=O)N[C@@H](C)C(=O)N1CCC[C@H]1C(=O)N1CCC[C@H]1C(=O)N1CCC[C@H]1C(=O)N[C@@H](CO)C(=O)N[C@@H](CCCCN)C(N)=O)C(C)C [Compound 125]	94 to 100	10 to 100	94 to 100	10 to 100	54 to 60	1 to 10	54 to 60	1 to 10							
